Reference: US5260426A, “Process for the preparation of pseudo primycin” (Chinoin Gyogyszer Es Vegyeszeti Termekek Gyara R.T., priority 1988, dated 1993)
Where two headings read alike, the source gives them in different places.

Assays:
[1] = Solubility; format: physicochemical
[2] = in vivo; conditions: mouse

Molecule `CCCCC1C(=O)OC(CCCNC(=N)N)C(C)C(O)C(C)C=C(C)CCCCC(O)CC(O)CC(O)CC(O)CC(O)C(OC2OC(CO)C(O)C2O)C=C(C)C(O)CCCC(O)CCCC(O)CCC(C)C1O` (stereo not shown) [Pseudo-primycin-A1-acetate] has a solubility in ethanol ([1]; ethanol) of 5 g/10 ml, a solubility in methanol ([1]; methanol) of 10 g/10 ml and a solubility in water ([1]; water) of 5 g/10 ml. For the same molecule, the LD50 ([2]; iv, female mice, read-out: LD50 values i.v. female) was 18.8 mg/kg, the LD50 ([2]; iv, male mice, read-out: LD50 values i.v. male) was 17.7 mg/kg and the LD50 ([2]; po, female mice, read-out: LD50 values p.o. female) was 1580 mg/kg. For the same molecule, the LD50 ([2]; po, male mice, read-out: LD50 values p.o. male) was 1720 mg/kg.
